Assay results reported in the NIST ThermoML archive (doi:10.1021/acs.jced.9b00442).

Settings: 100 kPa, Liquid; for electrical conductivity: Frequency=0.0006 MHz, Alternating current cell with electrodes; for viscosity: Concentric cylinders viscometry; for mass density: Vibrating tube method

CC[N+](CCO)(CCO)CCO.O=S(=O)([N-]S(=O)(=O)C(F)(F)F)C(F)(F)F
Settings | electrical conductivity [S/m] | mass density [kg/m3] | viscosity [mPa·s]
283.15 K | 0.007 | – | –
288.15 K | 0.011 | 1538.5 | 2041.7
289.15 K | – | 1537.6 | –
290.15 K | – | 1536.7 | –
291.15 K | – | 1535.9 | –
292.15 K | – | 1535 | –
293.15 K | 0.018 | 1534.1 | 1275.4
294.15 K | – | 1533.2 | –
295.15 K | – | 1532.4 | –
296.15 K | – | 1531.5 | –
297.15 K | – | 1530.6 | –
298.15 K | 0.026 | 1529.7 | 840.6
299.16 K | – | 1528.9 | –
300.16 K | – | 1528 | –
301.15 K | – | 1527.1 | –
302.15 K | – | 1526.2 | –
303.15 K | 0.037 | 1525.4 | 569.4
304.15 K | – | 1524.5 | –
305.15 K | – | 1523.6 | –
306.15 K | – | 1522.7 | –
307.15 K | – | 1521.9 | –
308.15 K | 0.052 | 1521 | 397.8
309.15 K | – | 1520.1 | –
310.15 K | – | 1519.2 | –
311.15 K | – | 1518.4 | –
312.15 K | – | 1517.5 | –
313.15 K | 0.07 | 1516.6 | 280.3
314.15 K | – | 1515.7 | –
315.15 K | – | 1514.9 | –
316.15 K | – | 1514 | –
317.15 K | – | 1513.1 | –
318.15 K | 0.092 | 1512.2 | 210.5
319.15 K | – | 1511.3 | –
320.15 K | – | 1510.5 | –
321.15 K | – | 1509.6 | –
322.15 K | – | 1508.7 | –
323.15 K | 0.118 | 1507.8 | 158.6
324.15 K | – | 1507 | –
325.15 K | – | 1506.1 | –
326.15 K | – | 1505.2 | –
327.15 K | – | 1504.4 | –
328.15 K | – | 1503.5 | 122
329.15 K | – | 1502.6 | –
330.15 K | – | 1501.8 | –
331.15 K | – | 1500.9 | –
332.15 K | – | 1500 | –
333.15 K | – | 1499.2 | 94.7
334.15 K | – | 1498.3 | –
335.16 K | – | 1497.4 | –
336.15 K | – | 1496.6 | –
337.15 K | – | 1495.7 | –
338.15 K | – | 1494.9 | 76.1
339.15 K | – | 1494 | –
340.15 K | – | 1493.2 | –
341.15 K | – | 1492.3 | –
342.15 K | – | 1491.4 | –
343.15 K | – | 1490.6 | 61.6
344.15 K | – | 1489.7 | –
345.15 K | – | 1488.9 | –
346.15 K | – | 1488 | –
347.15 K | – | 1487.2 | –
348.15 K | – | 1486.3 | 50.6
349.15 K | – | 1485.5 | –
350.15 K | – | 1484.6 | –
351.15 K | – | 1483.8 | –
352.15 K | – | 1483 | –
353.15 K | – | 1482.1 | 41.9
354.15 K | – | 1481.3 | –
355.15 K | – | 1480.4 | –
356.15 K | – | 1479.6 | –
357.15 K | – | 1478.7 | –
358.15 K | – | 1477.9 | 35.3
359.15 K | – | 1477.1 | –
360.15 K | – | 1476.2 | –
361.15 K | – | 1475.4 | –
362.16 K | – | 1474.6 | –
363.15 K | – | 1473.7 | 30

C[N+](CCO)(CCO)CCO.O=S(=O)([N-]S(=O)(=O)C(F)(F)F)C(F)(F)F
Settings | electrical conductivity [S/m] | mass density [kg/m3] | viscosity [mPa·s]
283.15 K | 0.01 | – | –
288.15 K | 0.017 | – | 1283.1
289.15 K | – | 1574.9 | –
290.15 K | – | 1574 | –
291.15 K | – | 1573.1 | –
292.15 K | – | 1572.2 | –
293.15 K | 0.025 | 1571.3 | 838.5
294.15 K | – | 1570.4 | –
295.15 K | – | 1569.5 | –
296.15 K | – | 1568.6 | –
297.15 K | – | 1567.7 | –
298.15 K | 0.036 | 1566.8 | 568.8
299.16 K | – | 1565.9 | –
300.16 K | – | 1565 | –
301.15 K | – | 1564.1 | –
302.15 K | – | 1563.2 | –
303.15 K | 0.05 | 1562.3 | 397.8
304.15 K | – | 1561.4 | –
305.15 K | – | 1560.5 | –
306.15 K | – | 1559.6 | –
307.15 K | – | 1558.7 | –
308.15 K | 0.068 | 1557.8 | 285.9
309.15 K | – | 1556.9 | –
310.15 K | – | 1556 | –
311.15 K | – | 1555.1 | –
312.15 K | – | 1554.2 | –
313.15 K | 0.09 | 1553.3 | 211.1
314.15 K | – | 1552.4 | –
315.15 K | – | 1551.5 | –
316.15 K | – | 1550.6 | –
317.15 K | – | 1549.7 | –
318.15 K | 0.117 | 1548.8 | 158.7
319.15 K | – | 1547.9 | –
320.15 K | – | 1547 | –
321.15 K | – | 1546.1 | –
322.15 K | – | 1545.2 | –
323.15 K | 0.149 | 1544.3 | 122
324.15 K | – | 1543.4 | –
325.15 K | – | 1542.5 | –
326.15 K | – | 1541.6 | –
327.15 K | – | 1540.7 | –
328.15 K | – | 1539.8 | 95.6
329.15 K | – | 1538.9 | –
330.15 K | – | 1538.1 | –
331.15 K | – | 1537.2 | –
332.15 K | – | 1536.3 | –
333.15 K | – | 1535.4 | 76.5
334.15 K | – | 1534.5 | –
335.16 K | – | 1533.6 | –
336.15 K | – | 1532.8 | –
337.15 K | – | 1531.9 | –
338.15 K | – | 1531 | 61.7
339.15 K | – | 1530.1 | –
340.15 K | – | 1529.2 | –
341.15 K | – | 1528.4 | –
342.15 K | – | 1527.5 | –
343.15 K | – | 1526.6 | 50.6
344.15 K | – | 1525.8 | –
345.15 K | – | 1524.9 | –
346.15 K | – | 1524 | –
347.15 K | – | 1523.1 | –
348.15 K | – | 1522.3 | 42.1
349.15 K | – | 1521.4 | –
350.15 K | – | 1520.5 | –
351.15 K | – | 1519.7 | –
352.15 K | – | 1518.8 | –
353.15 K | – | 1518 | 35.6
354.15 K | – | 1517.1 | –
355.15 K | – | 1516.2 | –
356.15 K | – | 1515.4 | –
357.15 K | – | 1514.5 | –
358.15 K | – | 1513.6 | 30.1
359.15 K | – | 1512.8 | –
360.15 K | – | 1511.9 | –
361.15 K | – | 1511.1 | –
362.16 K | – | 1510.2 | –
363.15 K | – | 1509.3 | 25.8

CCCC[N+](CCO)(CCO)CCO.O=S(=O)([N-]S(=O)(=O)C(F)(F)F)C(F)(F)F
Settings | electrical conductivity [S/m] | mass density [kg/m3] | viscosity [mPa·s]
283.15 K | 0.004 | – | –
288.15 K | 0.007 | – | 2752.6
289.15 K | – | 1464.4 | –
290.15 K | – | 1463.6 | –
291.15 K | – | 1462.7 | –
292.15 K | – | 1461.8 | –
293.15 K | 0.011 | 1461 | 1684.4
294.15 K | – | 1460.1 | –
295.15 K | – | 1459.2 | –
296.15 K | – | 1458.3 | –
297.15 K | – | 1457.5 | –
298.15 K | 0.016 | 1456.6 | 1072
299.16 K | – | 1455.7 | –
300.16 K | – | 1454.9 | –
301.15 K | – | 1454 | –
302.15 K | – | 1453.1 | –
303.15 K | 0.024 | 1452.3 | 708.7
304.15 K | – | 1451.4 | –
305.15 K | – | 1450.5 | –
306.15 K | – | 1449.7 | –
307.15 K | – | 1448.8 | –
308.15 K | 0.034 | 1447.9 | 484.5
309.15 K | – | 1447.1 | –
310.15 K | – | 1446.2 | –
311.15 K | – | 1445.4 | –
312.15 K | – | 1444.5 | –
313.15 K | 0.046 | 1443.6 | 340.8
314.15 K | – | 1442.8 | –
315.15 K | – | 1441.9 | –
316.15 K | – | 1441 | –
317.15 K | – | 1440.2 | –
318.15 K | 0.062 | 1439.3 | 245.9
319.15 K | – | 1438.4 | –
320.15 K | – | 1437.6 | –
321.15 K | – | 1436.7 | –
322.15 K | – | 1435.8 | –
323.15 K | 0.082 | 1435 | 182
324.15 K | – | 1434.1 | –
325.15 K | – | 1433.2 | –
326.15 K | – | 1432.4 | –
327.15 K | – | 1431.5 | –
328.15 K | – | 1430.6 | 137.7
329.15 K | – | 1429.8 | –
330.15 K | – | 1428.9 | –
331.15 K | – | 1428.1 | –
332.15 K | – | 1427.2 | –
333.15 K | – | 1426.3 | 106.6
334.15 K | – | 1425.5 | –
335.16 K | – | 1424.6 | –
336.15 K | – | 1423.8 | –
337.15 K | – | 1422.9 | –
338.15 K | – | 1422.1 | 83.5
339.15 K | – | 1421.2 | –
340.15 K | – | 1420.4 | –
341.15 K | – | 1419.5 | –
342.15 K | – | 1418.7 | –
343.15 K | – | 1417.8 | 66.7
344.15 K | – | 1417 | –
345.15 K | – | 1416.1 | –
346.15 K | – | 1415.3 | –
347.15 K | – | 1414.5 | –
348.15 K | – | 1413.6 | 54.1
349.15 K | – | 1412.8 | –
350.15 K | – | 1411.9 | –
351.15 K | – | 1411.1 | –
352.15 K | – | 1410.3 | –
353.15 K | – | 1409.4 | 44.7
354.15 K | – | 1408.6 | –
355.15 K | – | 1407.7 | –
356.15 K | – | 1406.9 | –
357.15 K | – | 1406.1 | –
358.15 K | – | 1405.2 | 37
359.15 K | – | 1404.4 | –
360.15 K | – | 1403.6 | –
361.15 K | – | 1402.8 | –
362.16 K | – | 1401.9 | –
363.15 K | – | 1401.1 | 31.1
